Results on 22 compounds are retold here after patent US11590116B2 (THERAVANCE BIOPHARMA R&D IP, LLC, priority 2019, dated 2023).

The target in assay [1] is T1, recombinant human ALK5 (TGF-βR1) protein (Homo sapiens, UniProt P36897).
T1 construct: purchased Life Technologies PR9075A
T1 sequence (P36897 34-503): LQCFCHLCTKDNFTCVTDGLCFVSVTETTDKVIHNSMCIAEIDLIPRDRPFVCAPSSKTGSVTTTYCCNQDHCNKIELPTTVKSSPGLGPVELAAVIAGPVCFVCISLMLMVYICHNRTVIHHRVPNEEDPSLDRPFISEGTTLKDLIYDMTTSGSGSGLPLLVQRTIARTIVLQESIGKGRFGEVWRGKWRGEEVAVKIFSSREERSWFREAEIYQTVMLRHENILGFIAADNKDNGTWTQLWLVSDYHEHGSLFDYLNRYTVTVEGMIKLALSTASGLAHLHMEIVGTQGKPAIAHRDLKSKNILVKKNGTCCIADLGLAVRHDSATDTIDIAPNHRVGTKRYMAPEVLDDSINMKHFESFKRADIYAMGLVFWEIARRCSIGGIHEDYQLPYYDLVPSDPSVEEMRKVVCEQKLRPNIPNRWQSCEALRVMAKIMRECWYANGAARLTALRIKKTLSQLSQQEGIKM
Nature of the assay: Biochemical ALK5 (TGF-βR1) assay to measure pKi (LANCE Ultra ULight kinase assay). The following applies: apparent pKi from pIC50 by Cheng-Prusoff, read-out: ALK5 pKi (converted). In outline: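 Compounds (10 μM to 25 pM) were preincubated 60 min at room temperature with enzyme, then reactions were started with ATP (125 μM stock, 5× final) and run 60 min at 37 °C. EDTA-containing Eu-anti-phospho-Topo IIα (Thr1342) antibody stopped the reaction; TR-FRET read at 665 nm. pIC50 from 4-parameter fit, converted to pKi via Cheng-Prusoff.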
For orientation: Time-resolved FRET reads energy transfer from a long-lived donor to a nearby acceptor.

Assay [2] has as its system TGF-β-stimulated SMAD3 phosphorylation in BEAS-2B cells. Put plainly: Cellular ALK5 potency assay, inhibition of TGF-β stimulated pSMAD3 formation in BEAS-2B cells. The format is cell-based. The conditions noted are these: Homo sapiens; inhibition of TGF-β stimulated pSMAD3 formation, BEAS-2B cells; read-out: BEAS2B pIC50 (converted). In outline:
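BEAS-2B human lung epithelial cells pre-treated 1 h at 37° C with compound in HBSS/25 mM HEPES/1% BSA, then stimulated 30 min with 10 ng/mL TGF-β (final). Lysates assayed for pSMAD3 by AlphaLISA; pIC50 from dose-dependent change versus stimulated untreated cells.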

With `Cc1cccc(-c2nnn(Cc3ccccc3)c2-c2ccc3ncc(N4CCNCC4)cc3c2)n1` [Compound 382, 6-[3-benzyl-5-(6-methyl-2-pyridyl)triazol-4-yl]-3-piperazin-1-yl-quinoline], in assay [1], the Ki was 0.0398 to 0.316 nM. For the same compound, in assay [2], the IC50 is 25.1 to 158 nM.
Taken in the same sequence, the figures for `Cc1cccc(-c2[nH]cnc2-c2ccc3ncc(-c4ccc5c(c4)CCC5N)cc3c2)n1` (centres unmarked) [Compound 275, 5-[6-[5-(6-methyl-2-pyridyl)-1H-imidazol-4-yl]-3-quinolyl]indan-1-amine] were 0.0398 to 0.316 nM and 25.1 to 158 nM.
Regarding `COC(=O)CC1CN(CCNc2cnc3ccc(-c4nc[nH]c4-c4cccc(C)n4)cc3c2)CCN1` (centres unmarked) [Compound 322, methyl 2-[4-[2-[[6-[5-(6-methyl-2-pyridyl)-1H-imidazol-4-yl]-3-quinolyl]amino]ethyl]piperazin-2-yl]acetate], the Ki in assay [1] is 0.0398 to 0.316 nM. In addition, the IC50 in assay [2] is 200 to 1260 nM.
Taken in the same sequence, the figures for `Cc1cccc(-c2[nH]cnc2-c2ccc3ncc(C4=CCC(NC(=O)N5CCNCC5)CC4)cc3c2)n1` (centres unmarked) [Compound 153, N-[4-[6-[5-(6-methyl-2-pyridyl)-1H-imidazol-4-yl]-3-quinolyl]cyclohex-3-en-1-yl]piperazine-1-carboxamide] were 0.0398 to 0.316 nM and 200 to 1260 nM.
As to `Cc1nc(-c2n[nH]cc2-c2ccc3ncc(-c4nc5n(n4)CCNC5)cc3n2)ccc1F` [Compound 176, 2-[3-(5-fluoro-6-methyl-2-pyridyl)-1H-pyrazol-4-yl]-7-(5,6,7,8-tetrahydro-[1,2,4]triazolo[1,5-a]pyrazin-2-yl)-1,5-naphthyridine], in assay [1], the Ki is 0.0398 to 0.316 nM. For the same compound, the IC50 in assay [2] is 25.1 to 158 nM.
On to `CNCCn1cc(-c2cnc3ccc(-c4c(-c5cccc(C)n5)nc5ccccn45)nc3c2)cn1` [Compound 527, N-methyl-2-(4-(6-(2-(6-methylpyridin-2-yl)imidazo[1,2-a]pyridin-3-yl)-1,5-naphthyridin-3-yl)-1H-pyrazol-1-yl)ethan-1-amine], for which the Ki in assay [1] was 0.0398 to 0.316 nM. Moreover, in assay [2], the IC50 was 25.1 to 158 nM.
For `Cc1cccc(-c2[nH]cnc2-c2ccc3ncc(N4C[C@@H](C)N[C@@H](C)C4)cc3c2)n1` [Compound 148, 3-[(3R,5S)-3,5-dimethylpiperazin-1-yl]-6-[5-(6-methyl-2-pyridyl)-1H-imidazol-4-yl]quinoline], in assay [1], the Ki was 0.0398 to 0.316 nM. The IC50 in assay [2] was 25.1 to 158 nM.
`CNCc1ccnc2ccc(-c3nc[nH]c3-c3cccc(C)n3)cc12` [Compound 100, N-methyl-1-[6-[5-(6-methyl-2-pyridyl)-1H-imidazol-4-yl]-4-quinolyl]methanamine]: the Ki in assay [1] is 0.398 to 3.16 nM. In assay [2], the IC50 is 25.1 to 158 nM.
The matching figures for `Cc1cccc(-c2n[nH]cc2-c2ccc3ncc(N4CCC(N5CCN(C)CC5)CC4)cc3n2)n1` [Compound 205, 7-[4-(4-methylpiperazin-1-yl)-1-piperidyl]-2-[3-(6-methyl-2-pyridyl)-1H-pyrazol-4-yl]-1,5-naphthyridine]: 0.0398 to 0.316 nM and 25.1 to 158 nM.
In the case of `Cc1cccc(-c2n[nH]cc2-c2ccc3ncc(N4CCC5NCCC5C4)cc3n2)n1` (centres unmarked) [Compound 151, 7-(1,2,3,3a,4,6,7,7a-octahydropyrrolo[3,2-c]pyridin-5-yl)-2-[3-(6-methyl-2-pyridyl)-1H-pyrazol-4-yl]-1,5-naphthyridine], the Ki in assay [1] is 0.0398 to 0.316 nM. In addition, the IC50 in assay [2] is 25.1 to 158 nM.
For the compound `Cc1cccc(-c2[nH]cnc2-c2ccc3ncc(-c4csc(C(=O)O[C@H]5CCNC5)c4)cc3c2)n1` [Compound 754, [(3S)-pyrrolidin-3-yl] 4-[6-[5-(6-methyl-2-pyridyl)-1H-imidazol-4-yl]-3-quinolyl]thiophene-2-carboxylate], the Ki in assay [1] is 0.0398 to 0.316 nM. Also, the IC50 in assay [2] is 25.1 to 158 nM.
As to `Cc1cccc(-c2[nH]cnc2-c2ccc3ncc(-c4cccc(C(=O)OC5CCNCC5)c4)cc3c2)n1` [Compound 224, 4-piperidyl 3-[6-[5-(6-methyl-2-pyridyl)-1H-imidazol-4-yl]-3-quinolyl]benzoate], the Ki in assay [1] was 0.0398 to 0.316 nM. Moreover, the IC50 in assay [2] is 25.1 to 158 nM.
Taken in the same sequence, the figures for `Cc1cccc(-c2[nH]cnc2-c2ccc3ncc(-c4csc(C(=O)OCCN5CCNCC5)n4)cc3c2)n1` [Compound 1096, 2-piperazin-1-ylethyl 4-[6-[5-(6-methyl-2-pyridyl)-1H-imidazol-4-yl]-3-quinolyl]thiazole-2-carboxylate] were 0.0398 to 0.316 nM and 25.1 to 158 nM.
The matching figures for `Cc1cccc(-c2nc3ccccn3c2-c2ccc3ncc(N4CCC(N(C)C)C4)cc3c2)n1` (centres unmarked) [Compound 272, N,N-dimethyl-1-[6-[2-(6-methyl-2-pyridyl)imidazo[1,2-a]pyridin-3-yl]-3-quinolyl]pyrrolidin-3-amine]: below 0.0316 nM and 25.1 to 158 nM.
The matching figures for `COC(=O)[C@@H]1CCN(CCNc2cnc3ccc(-c4nc[nH]c4-c4cccc(C)n4)cc3c2)C1` [Compound 729, methyl (3R)-1-[2-[[6-[5-(6-methyl-2-pyridyl)-1H-imidazol-4-yl]-3-quinolyl]amino]ethyl]pyrrolidine-3-carboxylate]: 0.0398 to 0.316 nM and 25.1 to 158 nM.
For `Cc1cccc(-c2n[nH]cc2-c2ccc3ncc(NCC4CNCCN4)cc3n2)n1` (centres unmarked) [Compound 269, 6-[3-(6-methyl-2-pyridyl)-1H-pyrazol-4-yl]-N-(piperazin-2-ylmethyl)-1,5-naphthyridin-3-amine], the Ki in assay [1] is 0.0398 to 0.316 nM. Also, the IC50 in assay [2] is 1580 to 10000 nM.
As to `Cc1cccc(-c2n[nH]cc2-c2ccc3ncc(N)cc3n2)n1` [Compound 300, 6-[3-(6-methyl-2-pyridyl)-1H-pyrazol-4-yl]-1,5-naphthyridin-3-amine], the Ki in assay [1] was below 0.0316 nM. The IC50 in assay [2] was below 20 nM.
For the compound `Cc1cccc(-c2n[nH]cc2-c2ccc3ncc(N4CCN(CCNC(C)C)CC4)cc3n2)n1` [Compound 637, N-[2-[4-[6-[3-(6-methyl-2-pyridyl)-1H-pyrazol-4-yl]-1,5-naphthyridin-3-yl]piperazin-1-yl]ethyl]propan-2-amine], in assay [1], the Ki is 0.0398 to 0.316 nM. The IC50 in assay [2] is 25.1 to 158 nM.
`Cc1cccc(-c2[nH]cnc2-c2ccc3ncc(Br)cc3c2)n1` [Compound 1190, 3-bromo-6-[5-(6-methyl-2-pyridyl)-1H-imidazol-4-yl]quinoline]: the Ki in assay [1] was 0.0398 to 0.316 nM. The IC50 in assay [2] was below 20 nM.
Taken in the same sequence, the figures for `Cc1cccc(-c2[nH]cnc2-c2ccc3ncc(Nc4ccc(N5CCN(Cc6ccccc6)CC5)cn4)cc3c2)n1` [Compound 510, N-[5-(4-benzylpiperazin-1-yl)-2-pyridyl]-6-[5-(6-methyl-2-pyridyl)-1H-imidazol-4-yl]quinolin-3-amine] were 0.398 to 3.16 nM and 25.1 to 158 nM.
The matching figures for `Cc1nc(-c2[nH]cnc2-c2ccc3ncc(-c4cn[nH]c4)cc3c2)ccc1F` [Compound 423, 6-[5-(5-fluoro-6-methyl-2-pyridyl)-1H-imidazol-4-yl]-3-(1H-pyrazol-4-yl)quinoline]: below 0.0316 nM and below 20 nM.
The matching figures for `Cc1nc(-c2n[nH]cc2-c2ccc3ncc(-c4cnn(C[C@H]5C[C@@H](N)C5)c4)cc3n2)ccc1F` [Compound 517, 3-[[4-[6-[3-(5-fluoro-6-methyl-2-pyridyl)-1H-pyrazol-4-yl]-1,5-naphthyridin-3-yl]pyrazol-1-yl]methyl]cyclobutanamine]: 0.0398 to 0.316 nM and 25.1 to 158 nM.
